Each compound was assayed against T1, EGFR (Homo sapiens, UniProt P00533) (assay: EGFR ELISA assay (in vitro kinase activity, EGFR captured from A431 cell lysate)).
T1 construct: Add 7 ug A431 cell lysate per well (EGFR source); endogenous in cells; host or cells: A431
Type: biochemical
Design: concentration or dose not given beside the values
Summary of the method: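 Receptor autophosphorylation was read by ELISA: anti-phosphotyrosine serum and an HRP-linked secondary with ABTS substrate, absorbance at 410 nm (reference 630 nm). The reaction ran 5 min with 3 µM ATP and 5 mM MnCl2 and was quenched by 20 mM EDTA. Compounds were first incubated 30 min with antibody-captured EGFR from A431 cell lysate.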

T1 sequence (P00533 25-1210): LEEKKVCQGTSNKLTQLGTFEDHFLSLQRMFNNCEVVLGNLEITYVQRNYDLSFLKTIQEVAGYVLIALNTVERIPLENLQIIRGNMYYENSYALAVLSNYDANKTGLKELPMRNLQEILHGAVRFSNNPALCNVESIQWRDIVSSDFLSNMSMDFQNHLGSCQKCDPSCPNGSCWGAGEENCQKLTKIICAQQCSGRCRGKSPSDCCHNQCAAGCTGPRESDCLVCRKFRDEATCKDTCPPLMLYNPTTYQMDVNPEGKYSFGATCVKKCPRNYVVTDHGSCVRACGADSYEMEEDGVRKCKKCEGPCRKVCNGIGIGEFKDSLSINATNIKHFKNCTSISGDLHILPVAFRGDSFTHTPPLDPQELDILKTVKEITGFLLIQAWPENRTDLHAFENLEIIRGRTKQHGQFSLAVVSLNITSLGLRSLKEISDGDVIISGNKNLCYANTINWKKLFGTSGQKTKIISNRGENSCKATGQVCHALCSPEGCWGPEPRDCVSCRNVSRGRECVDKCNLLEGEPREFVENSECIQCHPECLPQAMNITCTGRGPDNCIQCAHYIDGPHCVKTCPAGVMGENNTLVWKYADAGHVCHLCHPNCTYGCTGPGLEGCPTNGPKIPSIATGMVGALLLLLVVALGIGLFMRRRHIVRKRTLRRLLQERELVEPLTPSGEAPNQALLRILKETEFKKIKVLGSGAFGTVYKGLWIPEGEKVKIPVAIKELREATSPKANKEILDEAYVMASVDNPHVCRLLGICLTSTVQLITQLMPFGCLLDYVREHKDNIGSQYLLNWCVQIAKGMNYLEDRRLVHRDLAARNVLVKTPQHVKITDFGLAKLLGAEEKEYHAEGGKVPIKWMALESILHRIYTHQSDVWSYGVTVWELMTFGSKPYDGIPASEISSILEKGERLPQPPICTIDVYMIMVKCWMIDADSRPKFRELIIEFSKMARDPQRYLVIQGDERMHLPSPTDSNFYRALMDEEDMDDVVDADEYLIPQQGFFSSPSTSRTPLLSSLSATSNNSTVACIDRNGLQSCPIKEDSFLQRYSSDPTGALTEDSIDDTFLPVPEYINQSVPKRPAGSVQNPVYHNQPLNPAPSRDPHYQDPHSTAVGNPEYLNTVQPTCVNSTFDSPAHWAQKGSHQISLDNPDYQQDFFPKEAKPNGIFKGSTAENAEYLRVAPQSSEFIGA

First: O=C1Nc2ccc(S(=O)(=O)Nc3ccc(C(F)(F)F)cc3)cc2C1=Cc1cc(O)c(O)c(Br)c1 [10723/E04]
Second: Cc1cc(C=C2C(=O)Nc3ccc(S(=O)(=O)Nc4ccc(C(F)(F)F)cc4)cc32)ccc1O [10723/E06]
The “Biochem EGFR %Inhibition” value of the first is higher: 59.8% for the first, 11.5% for the second.

First: CC(=O)Oc1ccc(C=C2C(=O)Nc3ccc(S(=O)(=O)Nc4ccc(C(F)(F)F)cc4)cc32)cc1OC(C)=O [10723/E05]
Second: O=C1Nc2ccc(S(=O)(=O)Nc3ccc(C(F)(F)F)cc3)cc2C1=Cc1cccc(Br)c1 [10723/E10]
The “Biochem EGFR %Inhibition” value of the first is lower: -15.6% for the first, -7.9% for the second.

Compared with `O=C1Nc2ccc(S(=O)(=O)Nc3ccc(C(F)(F)F)cc3)cc2C1=Cc1ccccc1Br` [10723/E07], `O=C1Nc2ccc(S(=O)(=O)Nc3ccc(C(F)(F)F)cc3)cc2C1=Cc1ccc(O)cc1O` [10723/E08] is higher in “Biochem EGFR %Inhibition” value: 38.1% for the first, 52.6% for the second.

Compared with `COc1ccc(C=C2C(=O)Nc3ccc(S(=O)(=O)Nc4ccc(C(F)(F)F)cc4)cc32)c(O)c1` [10723/E09], `CC(C)(C)c1cc(C=C2C(=O)Nc3ccc(S(=O)(=O)Nc4ccc(C(F)(F)F)cc4)cc32)c(O)c(C(C)(C)C)c1` [10723/E11] is lower in “Biochem EGFR %Inhibition” value: 29.1% for the first, -44.6% for the second.

Compared with `O=C1Nc2ccc(S(=O)(=O)N3CCOCC3)cc2C1=Cc1ccc(O)c(O)c1O` [10723/F02], `COc1cccc(C=C2C(=O)Nc3ccc(S(=O)(=O)N4CCOCC4)cc32)c1O` [10723/F03] is lower in “Biochem EGFR %Inhibition” value: 70.4% for the first, 9.3% for the second.

Compared with `O=C1Nc2ccc(S(=O)(=O)N3CCOCC3)cc2C1=Cc1cc(O)c(O)c(Br)c1` [10723/F04], `CC(=O)Oc1ccc(C=C2C(=O)Nc3ccc(S(=O)(=O)N4CCOCC4)cc32)cc1OC(C)=O` [10723/F05] is lower in “Biochem EGFR %Inhibition” value: 17.5% for the first, -3.8% for the second.

Going from `O=C1Nc2ccc(CCCl)cc2C1=Cc1ccc(O)c(O)c1O` [10723/G02] to `O=C1Nc2ccc(CCCl)cc2C1=Cc1ccc(O)cc1O` [10723/G08], the “Biochem EGFR %Inhibition” value falls from 90.8% to 0.1%.

Going from `COc1cccc(C=C2C(=O)Nc3ccc(CCCl)cc32)c1O` [10723/G03] to `COc1ccc(C=C2C(=O)Nc3ccc(CCCl)cc32)c(O)c1` [10723/G09], the “Biochem EGFR %Inhibition” value falls from 18.5% to -32.6%.

Compared with `O=C1Nc2ccc(CCCl)cc2C1=Cc1cc(O)c(O)c(Br)c1` [10723/G04], `Cc1cc(C=C2C(=O)Nc3ccc(CCCl)cc32)ccc1O` [10723/G06] is lower in “Biochem EGFR %Inhibition” value: 16.7% for the first, -26.7% for the second.

Going from `CC(=O)Oc1ccc(C=C2C(=O)Nc3ccc(CCCl)cc32)cc1OC(C)=O` [10723/G05] to `O=C1Nc2ccc(CCCl)cc2C1=Cc1ccccc1Br` [10723/G07], the “Biochem EGFR %Inhibition” value rises from 1.3% to 15.5%.

From patent EP1247803A2, “Indolinone compounds suitable for modulation of protein kinases” (Sugen, Inc., priority 1996, dated 1998)
